The values that follow come from US8119667B2, “Carbonates of fenicol antibiotics” (Schering-Plough Animal Health Corporation, priority 2005, dated 2012).

The data set in a line: Syringeability of dosing solutions (dripping-syringe method). In kind it is physicochemical. The procedure:
Table 4, below, provides evaluations of the syringeability of dosing solutions of selected florfenicol benzylic carbonate prodrugs at concentrations equivalent to 300 mg/ml florfenicol (30% weight/volume).
High concentrations of fenicol or fenicol drug contained in a fenicol prodrug are often necessary for convenient administration of the necessary amount of the desired amount of the antibiotic. Due to the limited solubility of fenicols in many organic solvents or mixtures of solvents acceptable for injectable formulations the choice of solvents for preparation of highly concentrated florfenicol solutions is limited. As a result highly concentrated solutions of fenicol drugs in organic solvents or solvent mixtures may become highly viscous and difficult to administer by a syringe. Therefore the ability of fenicol benzylic carbonate prodrugs to dissolve in a wider range of organic solvents or mixtures of solvents acceptable for injectable formulations offered the potential to prepare highly concentrated solutions for injections with lower viscosity. […] Test solutions of florfenicol benzylic carbonates containing concentrations of florfenicol (mg/mL) equivalent to the concentration present in Nuflor® formulation were prepared. Syringeabilities of the solutions were evaluated by means of the “dripping syringe” method in which the dripping times (sec) of equal volumes of such solutions under free gravitational flow conditions from a vertically positioned syringe were measured at 15° C. After removing the plunger from a 5 ml polyethylene disposable syringe (5 ml Luer, Norm-Ject Zentrish/Henke Saas Wolf GMBH) and fitting the syringe with a disposable needle (B-D® 16G1 Precision Glide/BentonDickinson & CO) the test solutions were loaded from the top into the syringe and the time necessary for the free flow of 2 mL of solution (between 3 ml and 1 ml marks) was recorded in triplicate. The syringeabilities relative to Nuflor® were calculated by dividing the dripping time for the test solutions (entries 1-12) by the dripping time measured for the commercial sample of Nuflor® formulation (entry 13) As it is evident from the results in Table 4 the syringeabilities of tested solutions containing benzyl alcohol as viscosity diluent had relative syringeabilities <1.00 and were therefore better than Nuflor® (30% weight/volume florfenicol solution in propylene glycol/polyethylene glycol 300/2-methyl pyrolidinone). Due to their better syringeability these solutions represent more favorable formulations for injectable delivery of florfenicol. Solution of the florfenicol benzylic carbonate of the example 2 in triacetin/2-pyrolidinone—1/1 lacking the benzyl alcohol viscosity diluent was the only solution with syringeability poorer that than that of Nuflor® (entry 5).

Where [1] appears, read: 358 mg/ml, 2-pyrolidinone/benzyl alcohol - 1:1, 15° C.
Where [2] appears, read: 358 mg/ml, Triacetin/2-pyrolidinone - 1:1, 15° C.
[3] abbreviates: 358 mg/ml, Triacetin/benzyl alcohol - 2:1.5, 15° C.

On to `CCOC(=O)O[C@H](c1ccc(S(C)(=O)=O)cc1)[C@@H](CF)NC(=O)C(Cl)Cl` [Example 2, (1R,2S)-2-(2,2-dichloroacetamido)-3-fluoro-1-(4-(methylsulfonyl)phenyl)propyl ethyl carbonate], for which the “Syringeability measurement: Dripping time” value runs as follows: under setting [1], 108 ± 1 s; under setting [2], 268 ± 4 s; under setting [3], 97 ± 1 s; (prodrug concentration equivalent to 300 mg/ml florfenicol, Triacetin/benzyl alcohol - 2:1 (vol/vol), free flow of 2 mL at 15° C.) 128 ± 7 s. For the same molecule, the “Syringeability measurement: Relative to NUFLOR” value is on record as 0.46 under setting [1]; 1.15 under setting [2]; 0.42 under setting [3]; 0.55 (prodrug concentration equivalent to 300 mg/ml florfenicol, Triacetin/benzyl alcohol - 2:1 (vol/vol), 15° C.).
